Results: patent US20250101028A1, “HETEROCYCLIC COMPOUNDS, COMPOSITIONS THEREOF, AND METHODS OF TREATMENT THEREWITH” (BeiGene, Ltd., priority 2022, published 2025)
pIC50: −log10 of the molar value.

What follows are molecules tested against T1, GST-tagged GDP-loaded KRAS G12V (amino acids 1-169) (Homo sapiens, UniProt P01116, G12V) (assay: KRAS G12V probe displacement assay (TR-FRET)). Settings: displacement of biotinylated probe 2 from GDP-loaded KRAS G12V.
T1 construct: GST-tagged GDP-loaded KRAS G12V (amino acids 1-169); made in house; host or cells: E. coli
Type: binding
Outline: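 Probe displacement read as TR-FRET (665/620 nm) with anti-GST-Tb and streptavidin-XL665, IC50 from four-parameter logistic fit. Compound preincubated 1 h, 24 °C, with E. coli-expressed KRAS 1-169: WT at 3 nM with 60 nM probe 1, G12V at 2 nM with 2.5 nM probe 2, pH 7.5.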

T1 sequence (P01116 1-169 isoform P01116-2 G12V): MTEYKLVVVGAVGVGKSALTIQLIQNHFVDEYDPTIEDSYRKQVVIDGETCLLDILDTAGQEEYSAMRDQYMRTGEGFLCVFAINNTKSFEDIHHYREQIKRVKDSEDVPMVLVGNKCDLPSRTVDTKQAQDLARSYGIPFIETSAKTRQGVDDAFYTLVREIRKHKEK

Structure (SMILES) | pIC50
C[C@@]1(O)CCCN(c2nc(OC[C@@]34CCCN3C[C@H](F)C4)nc3c(F)c(-c4ccc(F)c5sc(N)nc45)c(C(F)(F)F)cc23)C1 [Example 80, (3R)-1-(7-(2-amino-7-fluorobenzo[d]thiazol-4-yl)-8-fluoro-2-(((2R,7aS)-2-fluorotetrahydro-1H-pyrrolizin-7a(5H)-yl)methoxy)-6-(trifluoromethyl)quinazolin-4-yl)-3-methylpiperidin-3-ol] | 7.77
Nc1nc2c(-c3c(C(F)(F)F)cc4c(N5CCCCCC5)nc(OC[C@@]56CCCN5C[C@H](F)C6)nc4c3F)ccc(F)c2s1 [Example 81, 4-(4-(azepan-1-yl)-8-fluoro-2-(((2R,7aS)-2-fluorotetrahydro-1H-pyrrolizin-7a(5H)-yl)methoxy)-6-(trifluoromethyl)quinazolin-7-yl)-7-fluorobenzo[d]thiazol-2-amine] | 8.31
N#CC1CCCCN(c2nc(OC[C@@]34CCCN3C[C@H](F)C4)nc3c(F)c(-c4ccc(F)c5sc(N)nc45)c(C(F)(F)F)cc23)C1 (stereo partly drawn) [Example 83, 1-(7-(2-amino-7-fluorobenzo[d]thiazol-4-yl)-8-fluoro-2-(((2R,7aS)-2-fluorotetrahydro-1H-pyrrolizin-7a(5H)-yl)methoxy)-6-(trifluoromethyl)quinazolin-4-yl)azepane-3-carbonitrile] | 8.19
Nc1nc2c(-c3c(C(F)(F)F)cc4c(N5CCCC(O)CC5)nc(OC[C@@]56CCCN5C[C@H](F)C6)nc4c3F)ccc(F)c2s1 (stereo partly drawn) [Example 84, 1-(7-(2-amino-7-fluorobenzo[d]thiazol-4-yl)-8-fluoro-2-(((2R,7aS)-2-fluorotetrahydro-1H-pyrrolizin-7a(5H)-yl)methoxy)-6-(trifluoromethyl)quinazolin-4-yl)azepan-4-ol] | 9.01
Nc1nc2c(-c3c(C(F)(F)F)cc4c(N5CCCC(CO)CC5)nc(OC[C@@]56CCCN5C[C@H](F)C6)nc4c3F)ccc(F)c2s1 (stereo partly drawn) [Example 85, (1-(7-(2-amino-7-fluorobenzo[d]thiazol-4-yl)-8-fluoro-2-(((2R,7aS)-2-fluorotetrahydro-1H-pyrrolizin-7a(5H)-yl)methoxy)-6-(trifluoromethyl)quinazolin-4-yl)azepan-4-yl)methanol] | 8.64
CCN1CC2(CCN(c3nc(OC[C@@]45CCCN4C[C@H](F)C5)nc4c(F)c(-c5ccc(F)c6sc(N)nc56)c(C(F)(F)F)cc34)CC2)OC1=O [Example 88, 8-(7-(2-amino-7-fluorobenzo[d]thiazol-4-yl)-8-fluoro-2-(((2R,7aS)-2-fluorotetrahydro-1H-pyrrolizin-7a(5H)-yl)methoxy)-6-(trifluoromethyl)quinazolin-4-yl)-3-ethyl-1-oxa-3,8-diazaspiro[4.5]decan-2-one] | 8.85
N#CCN1CC2(CCN(c3nc(OC[C@@]45CCCN4C[C@H](F)C5)nc4c(F)c(-c5ccc(F)c6sc(N)nc56)c(C(F)(F)F)cc34)CC2)OC1=O [Example 89, 2-(8-(7-(2-amino-7-fluorobenzo[d]thiazol-4-yl)-8-fluoro-2-(((2R,7aS)-2-fluorotetrahydro-1H-pyrrolizin-7a(5H)-yl)methoxy)-6-(trifluoromethyl)quinazolin-4-yl)-2-oxo-1-oxa-3,8-diazaspiro[4.5]decan-3-yl)acetonitrile] | 8.62
Nc1nc2c(-c3c(C(F)(F)F)cc4c(N5CCC6(CC5)CN(CC(F)F)C(=O)O6)nc(OC[C@@]56CCCN5C[C@H](F)C6)nc4c3F)ccc(F)c2s1 [Example 90, 8-(7-(2-amino-7-fluorobenzo[d]thiazol-4-yl)-8-fluoro-2-(((2R,7aS)-2-fluorotetrahydro-1H-pyrrolizin-7a(5H)-yl)methoxy)-6-(trifluoromethyl)quinazolin-4-yl)-3-(2,2-difluoroethyl)-1-oxa-3,8-diazaspiro[4.5]decan-2-one] | 8.38
Nc1nc2c(-c3c(C(F)(F)F)cc4c(N5CCC6(CC5)CN(CC(F)(F)F)C(=O)O6)nc(OC[C@@]56CCCN5C[C@H](F)C6)nc4c3F)ccc(F)c2s1 [Example 91, 8-(7-(2-amino-7-fluorobenzo[d]thiazol-4-yl)-8-fluoro-2-(((2R,7aS)-2-fluorotetrahydro-1H-pyrrolizin-7a(5H)-yl)methoxy)-6-(trifluoromethyl)quinazolin-4-yl)-3-(2,2,2-trifluoroethyl)-1-oxa-3,8-diazaspiro[4.5]decan-2-one] | 8.42
Nc1nc2c(-c3c(C(F)(F)F)cc4c(N5CCC6(CC5)CN(CC5CC5)C(=O)O6)nc(OC[C@@]56CCCN5C[C@H](F)C6)nc4c3F)ccc(F)c2s1 [Example 92, 8-(7-(2-amino-7-fluorobenzo[d]thiazol-4-yl)-8-fluoro-2-(((2R,7aS)-2-fluorotetrahydro-1H-pyrrolizin-7a(5H)-yl)methoxy)-6-(trifluoromethyl)quinazolin-4-yl)-3-(cyclopropylmethyl)-1-oxa-3,8-diazaspiro[4.5]decan-2-one] | 8.55
Nc1nc2c(-c3c(C(F)(F)F)cc4c(N5CCC6(CC5)CN(CCO)C(=O)O6)nc(OC[C@@]56CCCN5C[C@H](F)C6)nc4c3F)ccc(F)c2s1 [Example 93, 8-(7-(2-amino-7-fluorobenzo[d]thiazol-4-yl)-8-fluoro-2-(((2R,7aS)-2-fluorotetrahydro-1H-pyrrolizin-7a(5H)-yl)methoxy)-6-(trifluoromethyl)quinazolin-4-yl)-3-(2-hydroxyethyl)-1-oxa-3,8-diazaspiro[4.5]decan-2-one] | 8.66
COCCN1CC2(CCN(c3nc(OC[C@@]45CCCN4C[C@H](F)C5)nc4c(F)c(-c5ccc(F)c6sc(N)nc56)c(C(F)(F)F)cc34)CC2)OC1=O [Example 94, 8-(7-(2-amino-7-fluorobenzo[d]thiazol-4-yl)-8-fluoro-2-(((2R,7aS)-2-fluorotetrahydro-1H-pyrrolizin-7a(5H)-yl)methoxy)-6-(trifluoromethyl)quinazolin-4-yl)-3-(2-methoxyethyl)-1-oxa-3,8-diazaspiro[4.5]decan-2-one] | 8.60
Nc1nc2c(-c3c(C(F)(F)F)cc4c(N5CCC6(CCNC6=O)CC5)nc(OC[C@@]56CCCN5C[C@H](F)C6)nc4c3F)ccc(F)c2s1 [Example 95, 8-(7-(2-amino-7-fluorobenzo[d]thiazol-4-yl)-8-fluoro-2-(((2R,7aS)-2-fluorotetrahydro-1H-pyrrolizin-7a(5H)-yl)methoxy)-6-(trifluoromethyl)quinazolin-4-yl)-2,8-diazaspiro[4.5]decan-1-one] | 8.57
Nc1nc2c(-c3c(C(F)(F)F)cc4c(N5CCC6(CC5)CNC(=O)C6)nc(OC[C@@]56CCCN5C[C@H](F)C6)nc4c3F)ccc(F)c2s1 [Example 96, 8-(7-(2-amino-7-fluorobenzo[d]thiazol-4-yl)-8-fluoro-2-(((2R,7aS)-2-fluorotetrahydro-1H-pyrrolizin-7a(5H)-yl)methoxy)-6-(trifluoromethyl)quinazolin-4-yl)-2,8-diazaspiro[4.5]decan-3-one] | 8.82
CN1CC2(CCN(c3nc(OC[C@@]45CCCN4C[C@H](F)C5)nc4c(F)c(-c5ccc(F)c6sc(N)nc56)c(C(F)(F)F)cc34)CC2)CC1=O [Example 97, 8-(7-(2-amino-7-fluorobenzo[d]thiazol-4-yl)-8-fluoro-2-(((2R,7aS)-2-fluorotetrahydro-1H-pyrrolizin-7a(5H)-yl)methoxy)-6-(trifluoromethyl)quinazolin-4-yl)-2-methyl-2,8-diazaspiro[4.5]decan-3-one] | 8.42
Nc1nc2c(-c3c(C(F)(F)F)cc4c(N5CCC6(CC5)CNC(=O)CO6)nc(OC[C@@]56CCCN5C[C@H](F)C6)nc4c3F)ccc(F)c2s1 [Example 98, 9-(7-(2-amino-7-fluorobenzo[d]thiazol-4-yl)-8-fluoro-2-(((2R,7aS)-2-fluorotetrahydro-1H-pyrrolizin-7a(5H)-yl)methoxy)-6-(trifluoromethyl)quinazolin-4-yl)-1-oxa-4,9-diazaspiro[5.5]undecan-3-one] | 7.29
Nc1nc2c(-c3c(C(F)(F)F)cc4c(N5CCC6(CCNC(=O)O6)CC5)nc(OC[C@@]56CCCN5C[C@H](F)C6)nc4c3F)ccc(F)c2s1 [Example 99, 9-(7-(2-amino-7-fluorobenzo[d]thiazol-4-yl)-8-fluoro-2-(((2R,7aS)-2-fluorotetrahydro-1H-pyrrolizin-7a(5H)-yl)methoxy)-6-(trifluoromethyl)quinazolin-4-yl)-1-oxa-3,9-diazaspiro[5.5]undecan-2-one] | 8.55
Cc1cc(N)nc(-c2c(Cl)cc3c(N4CC[C@H](O)C4)nc(OC[C@@]45CCCN4C[C@H](F)C5)nc3c2F)c1C(F)(F)F [Example 102, (3S)-1-(7-(6-amino-4-methyl-3-(trifluoromethyl)pyridin-2-yl)-6-chloro-8-fluoro-2-(((2R,7aS)-2-fluorotetrahydro-1H-pyrrolizin-7a(5H)-yl)methoxy)quinazolin-4-yl)pyrrolidin-3-ol] | 7.34
Cc1cc(N)nc(-c2c(Cl)cc3c(N4CCC(C#N)CC4)nc(OC[C@@]45CCCN4C[C@H](F)C5)nc3c2F)c1C(F)(F)F [Example 103, 1-(7-(6-amino-4-methyl-3-(trifluoromethyl)pyridin-2-yl)-6-chloro-8-fluoro-2-(((2R,7aS)-2-fluorotetrahydro-1H-pyrrolizin-7a(5H)-yl)methoxy)quinazolin-4-yl)piperidine-4-carbonitrile] | 7.96
Cc1cc(N)nc(-c2c(Cl)cc3c(N4CCOC[C@@H]4C)nc(OC[C@@]45CCCN4C[C@H](F)C5)nc3c2F)c1C(F)(F)F [Example 105, 6-(6-chloro-8-fluoro-2-(((2R,7aS)-2-fluorotetrahydro-1H-pyrrolizin-7a(5H)-yl)methoxy)-4-((S)-3-methylmorpholino)quinazolin-7-yl)-4-methyl-5-(trifluoromethyl)pyridin-2-amine] | 7.60
